Experimental data from patent publication US20080242688A1, “Method 741” (ASTRAZENECA AB, priority 2007, published 2008).
Where “and” joins values, the source holds several entries; their conditions need not be identical. Equal entries are not always repeated. Where two headings read alike, the source gives them in different places.

Experiments:
[1] = Single dose PK/TK, rhesus monkey; assay type: in vivo; conditions: for half-life: read-out: T½ (converted); for Vd: read-out: Vss
Description: Pharmacokinetic studies in rats and monkeys were used to estimate the plasma concentrations associated with doses at which AZD0328 improved cognitive performance in these species. For example, in rhesus monkeys, two studies were conducted to determine the pharmacokinetic profile of AZD0328 after administration of 0.048 and 1.7 mg per kg AZD0328. […] We thus estimated the peak plasma concentrations in monkeys that received AZD0328 at 0.00048-0.016 mg per kg to be 0.6-18 nM. Similar studies and calculations in rats, when extended to mice, led us to estimate plasma concentrations at 0.001-0.1 mg per kg body weight to be 0.29-100 nM in these species.
(§1) This section provides a summary of the pharmacokinetic and metabolism properties of AZD0328 derived from in vivo studies. […] The derived PK/TK parameters from these studies are presented in Table 4 for single dose studies (DMR4, 0619LR, 20030191PCR, DMO16, DMB10, DMW12, 50190, 0190DD and 03.330/1), and are presented in Table 5 multiple dose PK/TK studies (DMR4, 0612AR, DMB15, 50190, 0190DD and 0295AD).

[2] = molecular target: α7 receptor (Rattus norvegicus, UniProt Q05941); assay: Hippocampal slice GABA sIPSC frequency; assay type: cell-based; conditions: 5 μM
Source text: In membranes prepared either from cultured, human recombinant α7 receptor-expressing, human embryonic kidney cells α7-HEK) or from rat brain hippocampus, AZD0328 competed with binding of an iodinated form of the high-affinity, selective α7 receptor antagonist snake toxin, [^125I]-α-bungarotoxin (BTX) (Table 1). In Xenopus oocytes injected with human, recombinant α7 receptor mRNA, AZD0328 activates whole cell currents (Table 2). […] In acutely dissociated rat hippocampal interneurons, AZD0328 elicits rapidly activated, desensitizing whole-cell current (Table 1), consistent with the known properties of rat neuronal α7 receptors. […] AZD0328 modulates synaptic function, consistent with the well-known role of α7 receptors as heteroreceptor modulators of glutamatergic and GABAergic synaptic function.

[3] = system: rhesus monkeys; assay: Spatial delayed response (SDR) task; assay type: in vivo, rhesus monkey
Source text: AZD0328 at low doses improved performance in the spatial delayed response test in monkeys. Rhesus monkeys were trained in a spatial delayed response task. In this task, food-motivated monkeys observed one of several spatially-displaced wells being baited with a food reward. After a brief delay during which a shutter is drawn and the wells are covered, the monkey must indicate the position of the baited well to receive the food reward. The performance of groups of monkeys was titrated into a narrow range by changing the number of wells or the duration of the delay. Monkeys were tested extensively to establish baseline performance before being administered drug or vehicle. Intramuscular administration of 0.00048 or 0.0016 mg/kg AZD0328 evoked a sustained increase in the percentage of correct responses monkeys made when compared with responses of vehicle-treated monkeys. […] Higher doses (≧0.016 mg/kg or higher) and lower doses (≦0.00016 mg/kg) had either no effect on monkeys or transiently impaired their performance of the task.
Rhesus monkey were trained in a spatial delayed response task. Middle doses of AZD0328 (0.0016 and 0.00048 mg/kg im) evoked a sustained improvement in rhesus monkey performance, while a higher dose (0.48 mg/kg) and a lower dose (0.000016 mg/kg) transiently impaired performance of the task (Table 2).

[4] = Multiple dose PK/TK, rabbit; assay type: in vivo; conditions: day 18; for AUC / Cmax / Tmax: female, New Zealand White, in vivo, sc
Source text: as §1

[5] = system: FFX Sprague Dawley rats; assay: Hippocampal long-term potentiation in vivo; set-up: species or system rat; conditions: 0.3 mg/kg
Description: AZD0328 reversed a deficit in hippocampal long-term potentiation (LTP) in FFX Sprague Dawley rats (Table 2). […] 0.3 mg/kg of AZD0328 was ineffective in this test.

[6] = both sexes, in vivo, rhesus monkey 2M+2F, 03.330/1, iv 1.15 mg/kg (5.32 μmol/kg)
[7] = both sexes, in vivo, rhesus monkey 2M+2F, 03.330/1, iv 3.85 mg/kg (17.8 μmol/kg)
[8] = both sexes, plasma, im, rhesus monkey 2F+2M, A7AGBU1006, intramuscular 1.7 mg/kg (8 μmol/kg)
[9] = both sexes, plasma, rhesus monkey 2M+2F, 03.330/1, iv 0.385 mg/kg (1.78 μmol/kg)
[10] = male, plasma, im, rhesus monkey 3M, A7AGBU1010, intramuscular 0.048 mg/kg (0.22 μmol/kg)
[11] = rabbit 2F, DMB15, subcutaneous 1.15 mg/kg (3 μmol/kg)
[12] = rabbit 3F, DMB15, subcutaneous 0.115 mg/kg (0.3 μmol/kg)
[13] = rabbit 3F, DMB15, subcutaneous 0.269 mg/kg (0.7 μmol/kg)
[14] = rabbit 3F, DMB15, subcutaneous 0.384 mg/kg (1 μmol/kg)
[15] = rabbit 3F, DMB15, subcutaneous 3.84 mg/kg (10 μmol/kg)

Chain of α7 receptor (Q05941 23-502): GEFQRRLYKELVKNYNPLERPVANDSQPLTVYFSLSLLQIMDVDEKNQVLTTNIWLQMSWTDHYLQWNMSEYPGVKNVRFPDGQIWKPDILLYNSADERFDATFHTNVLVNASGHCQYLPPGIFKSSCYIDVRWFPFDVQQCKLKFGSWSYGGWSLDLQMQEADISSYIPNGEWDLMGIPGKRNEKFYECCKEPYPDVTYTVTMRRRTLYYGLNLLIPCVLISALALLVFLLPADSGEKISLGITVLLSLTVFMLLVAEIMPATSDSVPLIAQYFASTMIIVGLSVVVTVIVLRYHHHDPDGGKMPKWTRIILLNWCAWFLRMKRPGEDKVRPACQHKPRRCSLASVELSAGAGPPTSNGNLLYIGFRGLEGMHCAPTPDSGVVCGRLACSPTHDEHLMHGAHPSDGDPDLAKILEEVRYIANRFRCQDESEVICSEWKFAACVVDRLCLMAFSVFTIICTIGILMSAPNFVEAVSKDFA

c1cnc2c(c1)C[C@@]1(CN3CCC1CC3)O2 [AZD0328, (R)-Spiro[1-azabicyclo[2.2.2]octane-3,2′(3′H)-furo[2,3-b]pyridine]]
half-life ([1]; both sexes, in vivo, rhesus monkey 2M+2F, 03.330/1, iv 0.385 mg/kg (1.78 μmol/kg)): 106 ± 25.8 min | clearance [1, 6]: 14.2 mL/min/kg | half-life [1, 6]: 118 ± 37.8 min | Vd [1, 6]: 2.52 ± 1.64 L/kg | clearance [1, 7]: 14.5 mL/min/kg | half-life [1, 7]: 128 ± 23.4 min | Vd [1, 7]: 2.85 ± 1.6 L/kg | AUC [1, 8]: 634 ± 81 ng·h/mL | Tmax [1, 8]: 15 min | Cmax ([1]; both sexes, plasma, im, rhesus monkey 2F+2M, A7AGBU1006, intramuscular 1.7 mg/kg (8 μmol/kg), read-out: Cmax): 430 ng/mL and 1.99 µM | half-life [1, 8]: 58.2 ± 7.2 min | clearance [1, 9]: 21 mL/min/kg | Vd [1, 9]: 3.29 ± 2.32 L/kg | Tmax [1, 10]: 15 min | Cmax ([1]; male, plasma, im, rhesus monkey 3M, A7AGBU1010, intramuscular 0.048 mg/kg (0.22 μmol/kg), read-out: Cmax): 16.1 ng/mL and 74.6 nM | half-life [1, 10]: 51 ± 13.8 min | estimated peak plasma concentrations ([1]; monkeys, 0.00048-0.016 mg per kg): 0.6 to 18 nM | Cmax ([1]; rhesus monkey, plasma, intramuscular, 0.016 mg/kg, rhesus monkeys, read-out: Cmax at NOAEL for behavioral side effects): 18 nM | estimated free plasma Cmax ([1]; rhesus monkeys, 0.016 mg/kg (NOAEL)): 18 nM | GABA sIPSC frequency [2]: 251 % baseline | duration of improved SDR performance after a single dose ([3]; four of nine monkeys, middle doses (0.0016 and 0.00048 mg/kg im)): more than one month | higher doses with no effect or transiently impaired SDR performance ([3]; rhesus monkeys): ≥ 16 µg/kg | lower doses with no effect or transiently impaired SDR performance ([3]; rhesus monkeys): ≤ 0.16 µg/kg | percent correct responses (SDR) ([3]; rhesus monkeys, 0.016 mg/kg): non-significant increase | AUC [4, 11]: 636 ng·h/mL to 846 ng·h/mL and 2.9 µM·h to 3.9 µM·h | Cmax [4, 11]: 224 ng/mL to 296 ng/mL and 1.04 µM to 1.37 µM | Tmax [4, 11]: 18 to 60 min | AUC [4, 12]: 50.2 ng·h/mL and 0.205 µM·h | Cmax [4, 12]: 24.7 ng/mL and 111 nM | Tmax [4, 12]: 19 to 58.2 min | AUC [4, 13]: 0.872 µM·h | Cmax [4, 13]: 138 ng/mL and 583 nM | Tmax [4, 13]: 13 to 29 min | AUC [4, 14]: 232 ng·h/mL and 1.01 µM·h | Cmax [4, 14]: 78.1 ng/mL and 317 nM | Tmax [4, 14]: 15 to 121 min | AUC [4, 15]: 2510 ng·h/mL and 11.6 µM·h | Cmax [4, 15]: 677 ng/mL and 3.13 µM | Tmax [4, 15]: 29 to 131 min | AUC/dose [4, 11]: 0.212-0.282 | AUC/dose [4, 12]: 0.148 ± 0.038 | AUC/dose [4, 13]: 0.270 ± 0.106 | AUC/dose [4, 15]: 0.251 ± 0.129 | effect on hippocampal LTP [5]: ineffective
